{
  "source": "patent US20020061888A1",
  "about": "“Combination therapy for the prophylaxis and treatment of hyperlipidemic conditions and disorders” (priority 2000, published 2002)",
  "key": {"Male beagle dogs [1]": {"tested_on": "Male beagle dogs", "experiment": "Fecal bile acid concentration in beagle dogs (enzymatic 3α-hydroxysteroid dehydrogenase assay of fecal extracts)", "type": "in vivo", "conditions": "for FECAL BILE ACID CONCENTRATION: n = 6; for % change in fecal bile acid: Week 2, footnote: vs pretreatment, text b128: vs vehicle", "protocol": "Male beagle dogs (9-10 kg) obtained from Marshall farms were fed a normal chow diet once a day for a two hour interval and given water ad libitum. Prior to initiating treatment, the dogs were weighed and blood samples were drawn from the cephalic vein of each dog following an overnight fast to evaluate pretreatment serum total cholesterol levels at the start of the study. […] All doses were administered in gelatin capsules per os to each dog between 9:00-9:30 a.m. prior to feeding. All animals were fed between 9:30-10:00 a.m. and were allowed two hours to eat, at which time any remaining food was removed. […] Three consecutive 24 hour fecal samples were collected for each group during the last 72 hours of each week and used to measure the concentration of fecal biles acids excreted during that time period.\nFecal samples were collected to determine the fecal bile acid (“FBA”) concentration for each animal. Three consecutive 24 hour fecal samples were collected between 8:00 a.m. and 9:00 a.m. each day, prior to dosing and feeding, during the last 72 hour period of each week. The separate daily collections from each dog were weighed, combined and homogenized with distilled water in a food processor to generate a homogeneous slurry. A 1.4 g sample of fecal homogenate was extracted with 2.6 mL of a solution containing tertiary butanol:distilled water in the ratio of 2:0.6 (final concentration of 50% tertiary butanol v/v distilled water) for 45 minutes in a 37° C. water bath and centrifuged for 13 minutes at 2000 x g. The concentration of bile acids (μmoles/gram homogenate) was determined using a 96-well enzymatic assay system described in van der Meer et al., “t-Butanol Extraction of Feces: A Rapid Procedure For Enzymic Determination Of Fecal Bile Acids”, Cholesterol, Metabolism in Health and Disease: Studies in the Netherlands, edited by Beynen, et al., Ponsen and Looyen, Wageningen, 1985; and Turley et al., “Re-evaluation of the 3 Alpha-Hydroxysteroid Dehydrogenase Assay For Total Bile Acids In Bile”, J. Lipid Research, 19:924-928, 1978.\nA 20 μL aliquot of each fecal extract was added to each of two sets of triplicate wells in a 96-well assay plate. A standardized sodium taurocholate solution and a standardized fecal extract solution (previously made from pooled samples and characterized for its bile acid concentration) were also analyzed for assay quality control. A standard curve of five points containing 30-540 nmoles/well was generated by serial dilutions of an initial 20 μL aliquot of 90 mM sodium taurocholate. A 230 μL aliquot of a reaction mixture containing 1M hydrazine hydrate, 0.1 M pyrophosphate and 0.46 mg/ml NAD was added to each well. Subsequently, a 50 μL aliquot of either 3α-hydroxysteroid dehydrogenase (“HSD”) enzyme (0.8 units/mL) or assay buffer (0.1 M sodium pyrophosphate) was then added to one each of the two sets of triplicates. Following 60 minutes of incubation at room temperature, the optical density at 340 nm was measured and the mean of each set of triplicate samples was calculated. The difference in optical density with and without HSD enzyme was used to determine the bile acid concentration (mM) of each sample based on the sodium taurocholate standard curve. The bile acid concentration of the extract (μmoles/gram homogenate), the total weight of the fecal homogenate (grams) and the body weight of the dogs (kg) were used to calculate the corresponding fecal bile acid concentration in μtmoles/kg/day for each animal.\nAll reagents used for the assay were obtained from Sigma Chemical Co., St. Louis, Mo. (HSD enzyme—catalog # H-1506; NAD—catalog # N1636; sodium taurocholate—catalog # T-4009)."}, "Male beagle dogs [2]": {"tested_on": "Male beagle dogs", "experiment": "Serum triglyceride in beagle dogs", "type": "in vivo", "conditions": "n = 6", "protocol": "Following this initial four week dose-ranging study, dogs from the two groups receiving 10 mg/kg/day pravastatin (a.m. and p.m. dosing groups) were randomized into two new treatment groups based on serum total cholesterol levels to initiate the combination treatment study. […] Dosing continued in this manner for an additional four weeks (Weeks 5-8) with blood and 48-hour fecal samples collected at the end of each week for serum lipid measurements and fecal bile acid determinations, respectively. […] At the end of this three-week period, pravastatin dosing and all empty capsule dosing were discontinued and blood samples were collected weekly for a final three weeks (weeks 12-14) to monitor the return of serum total cholesterol levels back to baseline.\nBlood was collected from the cephalic vein of each dog into serum separator tubes. The blood was centrifuged at 900×g for 20 minutes at room temperature and the serum decanted. All analyses were performed on a Cobas Mira Clinical Analyzer System (Roche Diagnostic Systems, Branchburg, N.J.) using Roche Diagnostic reagents for enzymatic determinations of serum cholesterol and triglycerides. Commercial calibrator and quality control materials were analyzed with each run to verify assay accuracy and precision. A two-tailed, paired Students t-test was used to determine the statistical significance of changes in total serum cholesterol in treated animals compared to their pretreatment values. A two-sample, two-tailed unequal variance Students t-test was used to determine serum total cholesterol and triglyceride changes in the combination therapy group compared to the monotherapy groups. […]"}, "[3]": {"conditions": "compound A-5 monotherapy 4.0 mg/kg/day, dosed Weeks 5-8, Week 5, mean ± SEM"}, "[4]": {"conditions": "compound A-5 monotherapy 4.0 mg/kg/day, dosed Weeks 5-8, Week 6, mean ± SEM"}, "[5]": {"conditions": "compound A-5 monotherapy 4.0 mg/kg/day, dosed Weeks 5-8, Week 7, mean ± SEM"}, "[6]": {"conditions": "compound A-5 monotherapy 4.0 mg/kg/day, dosed Weeks 5-8, Week 8, mean ± SEM"}, "[7]": {"conditions": "compound A-5 monotherapy group, dosing terminated after Week 8, Week 9, mean ± SEM"}, "[8]": {"conditions": "compound A-5 monotherapy group, dosing terminated after Week 8, Week 10, mean ± SEM"}},
  "data": [
    {"smiles": "CCCCC1(CC)CS(=O)(=O)c2ccc(N(C)C)cc2[C@@H](c2cccc(OCc3ccc(C[N+]45CCN(CC4)CC5)cc3)c2)[C@H]1O.[Cl-]", "note": "(stereo partly shown) [Compound A-5]", "values": [
      {"measurement": "return of fecal bile acid levels to their pretreatment levels after the last day of compound A-5 dosing", "setting": "Male beagle dogs [1]; Example 3, 4.0 mg/kg/day compound A-5 for four weeks, alone or with 10 mg/kg/day pravastatin", "result": "within one week"},
      {"measurement": "FECAL BILE ACID CONCENTRATION", "setting": "Male beagle dogs [1]; compound A-5 0.22 mg/kg/day per os, Week 1, mean ± SEM", "result": "89 ± 9^3 μmol/day/kg"},
      {"measurement": "% change in fecal bile acid", "setting": "Male beagle dogs [1]; compound A-5 0.22 mg/kg/day per os", "result": "(270) %"},
      {"measurement": "FECAL BILE ACID CONCENTRATION", "setting": "Male beagle dogs [1]; compound A-5 0.22 mg/kg/day per os, Week 2, mean ± SEM", "result": "100 ± 11^3 μmol/day/kg"},
      {"measurement": "FECAL BILE ACID CONCENTRATION", "setting": "Male beagle dogs [1]; compound A-5 0.22 mg/kg/day per os, Week 3, mean ± SEM", "result": "81 ± 7^3 μmol/day/kg"},
      {"measurement": "FECAL BILE ACID CONCENTRATION", "setting": "Male beagle dogs [1]; compound A-5 0.66 mg/kg/day per os, Week 1, mean ± SEM", "result": "134 ± 19^3 μmol/day/kg"},
      {"measurement": "% change in fecal bile acid", "setting": "Male beagle dogs [1]; compound A-5 0.66 mg/kg/day per os", "result": "(396) %"},
      {"measurement": "FECAL BILE ACID CONCENTRATION", "setting": "Male beagle dogs [1]; compound A-5 0.66 mg/kg/day per os, Week 2, mean ± SEM", "result": "134 ± 16^3 μmol/day/kg"},
      {"measurement": "FECAL BILE ACID CONCENTRATION", "setting": "Male beagle dogs [1]; compound A-5 0.66 mg/kg/day per os, Week 3, mean ± SEM", "result": "126 ± 12^3 μmol/day/kg"},
      {"measurement": "FECAL BILE ACID CONCENTRATION", "setting": "Male beagle dogs [1]; compound A-5 2.0 mg/kg/day per os, Week 1, mean ± SEM", "result": "168 ± 13^3 μmol/day/kg"},
      {"measurement": "% change in fecal bile acid", "setting": "Male beagle dogs [1]; compound A-5 2.0 mg/kg/day per os", "result": "(411) %"},
      {"measurement": "FECAL BILE ACID CONCENTRATION", "setting": "Male beagle dogs [1]; compound A-5 2.0 mg/kg/day per os, Week 2, mean ± SEM", "result": "138 ± 12^3 μmol/day/kg"},
      {"measurement": "FECAL BILE ACID CONCENTRATION", "setting": "Male beagle dogs [1]; compound A-5 2.0 mg/kg/day per os, Week 3, mean ± SEM", "result": "164 ± 11^3 μmol/day/kg"},
      {"measurement": "FECAL BILE ACID CONCENTRATION", "setting": "Male beagle dogs [1]; compound A-5 6.0 mg/kg/day per os, Week 1, mean ± SEM", "result": "190 ± 18^3 μmol/day/kg"},
      {"measurement": "% change in fecal bile acid", "setting": "Male beagle dogs [1]; compound A-5 6.0 mg/kg/day per os", "result": "(674) %"},
      {"measurement": "FECAL BILE ACID CONCENTRATION", "setting": "Male beagle dogs [1]; compound A-5 6.0 mg/kg/day per os, Week 2, mean ± SEM", "result": "209 ± 27^3 μmol/day/kg"},
      {"measurement": "FECAL BILE ACID CONCENTRATION", "setting": "Male beagle dogs [1]; compound A-5 6.0 mg/kg/day per os, Week 3, mean ± SEM", "result": "179 ± 16^3 μmol/day/kg"},
      {"measurement": "% change in fecal bile acid concentration from Week 0", "setting": "Male beagle dogs [1]; compound A-5 monotherapy 4.0 mg/kg/day, dosed Weeks 5-8, Week 5", "result": "(+293)^4%"},
      {"measurement": "FECAL BILE ACID CONCENTRATION", "setting": "Male beagle dogs [1]; [3]", "result": "106 ± 13^3 μmol/kg/day"},
      {"measurement": "% change in fecal bile acid concentration from Week 0", "setting": "Male beagle dogs [1]; compound A-5 monotherapy 4.0 mg/kg/day, dosed Weeks 5-8, Week 6", "result": "(+374) %"},
      {"measurement": "FECAL BILE ACID CONCENTRATION", "setting": "Male beagle dogs [1]; [4]", "result": "128 ± 17^3 μmol/kg/day"},
      {"measurement": "% change in fecal bile acid concentration from Week 0", "setting": "Male beagle dogs [1]; compound A-5 monotherapy 4.0 mg/kg/day, dosed Weeks 5-8, Week 7", "result": "(+578) %"},
      {"measurement": "FECAL BILE ACID CONCENTRATION", "setting": "Male beagle dogs [1]; [5]", "result": "183 ± 39^3 μmol/kg/day"},
      {"measurement": "FECAL BILE ACID CONCENTRATION", "setting": "Male beagle dogs [1]; [6]", "result": "109 ± 23^3 μmol/kg/day"},
      {"measurement": "% change in fecal bile acid concentration from Week 0", "setting": "Male beagle dogs [1]; compound A-5 monotherapy group, dosing terminated after Week 8, Week 9", "result": "(+48) %"},
      {"measurement": "FECAL BILE ACID CONCENTRATION", "setting": "Male beagle dogs [1]; [7]", "result": "40 ± 6", "unit": "µmol/kg/day"},
      {"measurement": "% change in fecal bile acid concentration from Week 0", "setting": "Male beagle dogs [1]; compound A-5 monotherapy group, dosing terminated after Week 8, Week 10", "result": "(+59) %"},
      {"measurement": "FECAL BILE ACID CONCENTRATION", "setting": "Male beagle dogs [1]; [8]", "result": "43 ± 4", "unit": "µmol/kg/day"},
      {"measurement": "TOTAL SERUM TRIGLYCERIDE", "setting": "Male beagle dogs [2]; [3]", "result": "37 ± 3", "unit": "mg/dL"},
      {"measurement": "TOTAL SERUM TRIGLYCERIDE", "setting": "Male beagle dogs [2]; [4]", "result": "32 ± 3", "unit": "mg/dL"},
      {"measurement": "TOTAL SERUM TRIGLYCERIDE", "setting": "Male beagle dogs [2]; [5]", "result": "36 ± 3", "unit": "mg/dL"},
      {"measurement": "TOTAL SERUM TRIGLYCERIDE", "setting": "Male beagle dogs [2]; [6]", "result": "34 ± 3", "unit": "mg/dL"},
      {"measurement": "TOTAL SERUM TRIGLYCERIDE", "setting": "Male beagle dogs [2]; [7]", "result": "39 ± 3", "unit": "mg/dL"},
      {"measurement": "TOTAL SERUM TRIGLYCERIDE", "setting": "Male beagle dogs [2]; [8]", "result": "42 ± 4", "unit": "mg/dL"},
      {"measurement": "TOTAL SERUM TRIGLYCERIDE", "setting": "Male beagle dogs [2]; compound A-5 monotherapy group, dosing terminated after Week 8, Week 11, mean ± SEM", "result": "34 ± 3", "unit": "mg/dL"},
      {"measurement": "TOTAL SERUM TRIGLYCERIDE", "setting": "Male beagle dogs [2]; compound A-5 monotherapy group, dosing terminated after Week 8, Week 12, mean ± SEM", "result": "51 ± 5", "unit": "mg/dL"},
      {"measurement": "TOTAL SERUM TRIGLYCERIDE", "setting": "Male beagle dogs [2]; compound A-5 monotherapy group, dosing terminated after Week 8, Week 13, mean ± SEM", "result": "46 ± 3", "unit": "mg/dL"}
    ]}
  ]
}
